Starred links: 1 amine or outer side, 2 acyl side, 3 side chain; linkers in the order of their positions; H or OH if unused. Positions of bridges follow the written chain, without caps; N, C: chain ends. Residues, ends and D or L forms follow the SMILES beside them. *: point of attachment. C20 diacid = O=C(O)CCCCCCCCCCCCCCCCCCC(=O)*; γGlu = O=C(O)[C@H](CCC(=O)[*:2])N[*:1]
Assay: Assay (III) ThT fibrillation assay for physical stability
Type: physicochemical
Conditions: for ThT pH 4.0 lag time: pH 4.0, ThT fibrillation assay
In short: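 Freshly prepared, pH-adjusted formulations with 1 μM ThT incubated at 37 °C under 960 rpm orbital shaking (1 mm), fluorescence (ex 444, em 485 nm) read every 20 min. […] Peptide content before and after measured by reverse-phase HPLC against pramlintide standard.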

Structure (SMILES) | ThT pH 4.0 lag time (physical stability in fibrillogenesis assay) [h] | ThT pH 4.0 lag time [h]
CC[C@H](C)[C@H](NC(=O)[C@@H]1CCCN1C(=O)CNC(=O)[C@H](Cc1ccccc1)NC(=O)[C@H](CC(N)=O)NC(=O)[C@H](CC(N)=O)NC(=O)[C@H](CO)NC(=O)[C@H](CO)NC(=O)[C@H](Cc1c[nH]cn1)NC(=O)[C@H](Cc1c[nH]cn1)NC(=O)[C@H](CC(C)C)NC(=O)[C@H](Cc1ccccc1)NC(=O)[C@H](CCC(=O)O)NC(=O)[C@H](C)NC(=O)[C@H](CC(C)C)NC(=O)[C@H](CCCCN)NC(=O)[C@H](CCC(N)=O)NC(=O)[C@@H](NC(=O)[C@H](C)NC(=O)[C@@H]1CSSC[C@H](NC(=O)[C@H](CCCCN)NC(=O)CC[C@H](NC(=O)CCCCCCCCCCCCCCCCCCC(=O)O)C(=O)O)C(=O)N[C@@H](CC(N)=O)C(=O)N[C@@H]([C@@H](C)O)C(=O)N[C@@H](C)C(=O)N[C@@H]([C@@H](C)O)C(=O)N1)[C@@H](C)O)C(=O)N[C@@H](CC(C)C)C(=O)N1CCC[C@H]1C(=O)N1CCC[C@H]1C(=O)N[C@H](C(=O)N[C@@H](CC(N)=O)C(=O)N[C@H](C(=O)NCC(=O)N[C@@H](CO)C(=O)N[C@@H](CC(N)=O)C(=O)N[C@H](C(=O)N1CCC[C@H]1C(N)=O)[C@@H](C)O)C(C)C)[C@@H](C)O [Example 145, N-alpha-[(S)-4-Carboxy-4-(19-carboxynonadecanoylamino)butyryl]-[Lys11,Glu14,His17,Pro37]-pramlintide] ({C20 diacid-γGlu}-KCNTATCATQKLAEFLHHSSNNFGPILPPTNVGSNTP-NH2; disulfide 2-7) | >45 | >45
CC[C@H](C)[C@H](NC(=O)[C@@H]1CCCN1C(=O)CNC(=O)[C@H](Cc1ccccc1)NC(=O)[C@H](CC(N)=O)NC(=O)[C@H](CC(N)=O)NC(=O)[C@H](CO)NC(=O)[C@H](CO)NC(=O)[C@H](Cc1c[nH]cn1)NC(=O)[C@H](Cc1c[nH]cn1)NC(=O)[C@H](CC(C)C)NC(=O)[C@H](Cc1ccccc1)NC(=O)[C@H](CCC(=O)O)NC(=O)[C@H](C)NC(=O)[C@H](CC(C)C)NC(=O)[C@H](CCCNC(=N)N)NC(=O)[C@H](CCC(N)=O)NC(=O)[C@@H](NC(=O)[C@H](C)NC(=O)[C@@H]1CSSC[C@H](NC(=O)[C@H](CCCCN)NC(=O)[C@H](Cc2c[nH]cn2)NC(=O)CC[C@H](NC(=O)CCCCCCCCCCCCCCCCCCC(=O)O)C(=O)O)C(=O)N[C@@H](CC(N)=O)C(=O)N[C@@H]([C@@H](C)O)C(=O)N[C@@H](C)C(=O)N[C@@H]([C@@H](C)O)C(=O)N1)[C@@H](C)O)C(=O)N[C@@H](CC(C)C)C(=O)N1CCC[C@H]1C(=O)N1CCC[C@H]1C(=O)N[C@H](C(=O)N[C@@H](CC(N)=O)C(=O)N[C@H](C(=O)NCC(=O)N[C@@H](CO)C(=O)N[C@@H](Cc1c[nH]cn1)C(=O)N[C@H](C(=O)N[C@@H](Cc1ccc(O)cc1)C(N)=O)[C@@H](C)O)C(C)C)[C@@H](C)O [Example 66, N-alpha-[(S)-4-Carboxy-4-(19-carboxynonadecanoylamino)butyryl]-His-[Glu14,His17,His35]-pramlintide] ({C20 diacid-γGlu}-HKCNTATCATQRLAEFLHHSSNNFGPILPPTNVGSHTY-NH2; disulfide 3-8) |  | >45
CC[C@H](C)[C@H](NC(=O)[C@@H]1CCCN1C(=O)CNC(=O)[C@H](Cc1ccccc1)NC(=O)[C@H](CC(N)=O)NC(=O)[C@H](CC(=O)O)NC(=O)[C@H](CO)NC(=O)[C@H](CO)NC(=O)[C@H](Cc1c[nH]cn1)NC(=O)[C@H](Cc1c[nH]cn1)NC(=O)[C@H](CC(C)C)NC(=O)[C@H](Cc1ccccc1)NC(=O)[C@H](CCC(=O)O)NC(=O)[C@H](C)NC(=O)[C@H](CC(C)C)NC(=O)[C@H](CCCNC(=N)N)NC(=O)[C@H](CCC(N)=O)NC(=O)[C@@H](NC(=O)[C@H](C)NC(=O)[C@@H]1CSSC[C@H](NC(=O)[C@H](CCCCN)NC(=O)CC[C@H](NC(=O)CCCCCCCCCCCCCCCCCCC(=O)O)C(=O)O)C(=O)N[C@@H](CC(N)=O)C(=O)N[C@@H]([C@@H](C)O)C(=O)N[C@@H](C)C(=O)N[C@@H]([C@@H](C)O)C(=O)N1)[C@@H](C)O)C(=O)N[C@@H](CC(C)C)C(=O)N1CCC[C@H]1C(=O)N1CCC[C@H]1C(=O)N[C@H](C(=O)N[C@@H](CC(N)=O)C(=O)N[C@H](C(=O)NCC(=O)N[C@@H](CO)C(=O)N[C@@H](Cc1c[nH]cn1)C(=O)N[C@H](C(=O)N[C@@H](Cc1ccc(O)cc1)C(N)=O)[C@@H](C)O)C(C)C)[C@@H](C)O [Example 128, N-alpha-[(S)-4-Carboxy-4-(19-carboxynonadecanoylamino)butyryl]-[Glu14,His17,Asp21,His35]-pramlintide] ({C20 diacid-γGlu}-KCNTATCATQRLAEFLHHSSDNFGPILPPTNVGSHTY-NH2; disulfide 2-7) |  | >45
CC[C@H](C)[C@H](NC(=O)[C@@H]1CCCN1C(=O)CNC(=O)[C@H](Cc1ccccc1)NC(=O)[C@H](CC(N)=O)NC(=O)[C@H](CC(N)=O)NC(=O)[C@H](CO)NC(=O)[C@H](CO)NC(=O)[C@H](Cc1c[nH]cn1)NC(=O)[C@H](Cc1c[nH]cn1)NC(=O)[C@H](CC(C)C)NC(=O)[C@H](Cc1ccccc1)NC(=O)[C@H](CCC(=O)O)NC(=O)[C@H](C)NC(=O)[C@H](CC(C)C)NC(=O)[C@H](CCCNC(=N)N)NC(=O)[C@H](CCC(N)=O)NC(=O)[C@@H](NC(=O)[C@H](C)NC(=O)[C@@H]1CSSC[C@H](NC(=O)[C@H](CCCNC(=N)N)NC(=O)CC[C@H](NC(=O)CCCCCCCCCCCCCCCCCCC(=O)O)C(=O)O)C(=O)N[C@@H](CC(N)=O)C(=O)N[C@@H]([C@@H](C)O)C(=O)N[C@@H](C)C(=O)N[C@@H]([C@@H](C)O)C(=O)N1)[C@@H](C)O)C(=O)N[C@@H](CC(C)C)C(=O)N1CCC[C@H]1C(=O)N1CCC[C@H]1C(=O)N[C@H](C(=O)N[C@@H](CC(N)=O)C(=O)N[C@H](C(=O)NCC(=O)N[C@@H](CO)C(=O)N[C@@H](Cc1c[nH]cn1)C(=O)N[C@H](C(=O)N[C@@H](Cc1ccc(O)cc1)C(N)=O)[C@@H](C)O)C(C)C)[C@@H](C)O [Example 95, N-alpha-[(S)-4-Carboxy-4-(19-carboxynonadecanoylamino)butyryl]-[Arg1,Glu14,His17,His35]-pramlintide] ({C20 diacid-γGlu}-RCNTATCATQRLAEFLHHSSNNFGPILPPTNVGSHTY-NH2; disulfide 2-7 (inferred)) |  | >45
CC[C@H](C)[C@H](NC(=O)[C@@H]1CCCN1C(=O)CNC(=O)[C@H](Cc1ccccc1)NC(=O)[C@H](CCC(N)=O)NC(=O)[C@H](CCC(N)=O)NC(=O)[C@H](CO)NC(=O)[C@H](CO)NC(=O)[C@H](Cc1c[nH]cn1)NC(=O)[C@H](CCCNC(=N)N)NC(=O)[C@H](CC(C)C)NC(=O)[C@H](Cc1ccccc1)NC(=O)[C@H](CCC(=O)O)NC(=O)[C@H](C)NC(=O)[C@H](CC(C)C)NC(=O)[C@H](CCCNC(=N)N)NC(=O)[C@H](CCC(N)=O)NC(=O)[C@@H](NC(=O)[C@H](C)NC(=O)[C@@H]1CSSC[C@H](NC(=O)[C@H](CCC(=O)O)NC(=O)[C@H](CCCNC(=N)N)NC(=O)[C@H](CCC(=O)O)NC(=O)CC[C@H](NC(=O)CCCCCCCCCCCCCCCCCCC(=O)O)C(=O)O)C(=O)N[C@@H](CC(N)=O)C(=O)N[C@@H]([C@@H](C)O)C(=O)N[C@@H](C)C(=O)N[C@@H]([C@@H](C)O)C(=O)N1)[C@@H](C)O)C(=O)N[C@@H](CC(C)C)C(=O)N1CCC[C@H]1C(=O)N1CCC[C@H]1C(=O)N[C@H](C(=O)N[C@@H](CCC(N)=O)C(=O)N[C@H](C(=O)NCC(=O)N[C@@H](CO)C(=O)N[C@@H](CCC(N)=O)C(=O)N[C@H](C(=O)N1CCC[C@H]1C(N)=O)[C@@H](C)O)C(C)C)[C@@H](C)O [Example 164, N-alpha-[(S)-4-Carboxy-4-(19-carboxynonadecanoylamino)butyryl]-Glu-Arg-[Glu1,Glu14,Arg17,Gln21,Gln22,Gln31,Gln35,Pro37]-pramlintide] ({C20 diacid-γGlu}-ERECNTATCATQRLAEFLRHSSQQFGPILPPTQVGSQTP-NH2; disulfide 4-9 (inferred)) | >45 | >45
CC[C@H](C)[C@H](NC(=O)[C@@H]1CCCN1C(=O)CNC(=O)[C@H](Cc1ccccc1)NC(=O)[C@H](CC(N)=O)NC(=O)[C@H](CC(N)=O)NC(=O)[C@H](CO)NC(=O)[C@H](CO)NC(=O)[C@H](Cc1c[nH]cn1)NC(=O)[C@H](Cc1c[nH]cn1)NC(=O)[C@H](CC(C)C)NC(=O)[C@H](Cc1ccccc1)NC(=O)[C@H](CCC(=O)O)NC(=O)[C@H](C)NC(=O)[C@H](CC(C)C)NC(=O)[C@H](CCCNC(=N)N)NC(=O)[C@H](CCC(N)=O)NC(=O)[C@@H](NC(=O)[C@H](C)NC(=O)[C@@H]1CSSC[C@H](NC(=O)[C@H](CCCCN)NC(=O)[C@H](Cc2c[nH]cn2)NC(=O)[C@H](Cc2c[nH]cn2)NC(=O)CC[C@H](NC(=O)CCCCCCCCCCCCCCCCCCC(=O)O)C(=O)O)C(=O)N[C@@H](CC(N)=O)C(=O)N[C@@H]([C@@H](C)O)C(=O)N[C@@H](C)C(=O)N[C@@H]([C@@H](C)O)C(=O)N1)[C@@H](C)O)C(=O)N[C@@H](CC(C)C)C(=O)N1CCC[C@H]1C(=O)N1CCC[C@H]1C(=O)N[C@H](C(=O)N[C@@H](CC(N)=O)C(=O)N[C@H](C(=O)NCC(=O)N[C@@H](CO)C(=O)N[C@@H](Cc1c[nH]cn1)C(=O)N[C@H](C(=O)N[C@@H](Cc1ccc(O)cc1)C(N)=O)[C@@H](C)O)C(C)C)[C@@H](C)O [Example 67, N-alpha-[(S)-4-Carboxy-4-(19-carboxynonadecanoylamino)butyryl]-His-His-[Glu14,His17,His35]-pramlintide] ({C20 diacid-γGlu}-HHKCNTATCATQRLAEFLHHSSNNFGPILPPTNVGSHTY-NH2; disulfide 4-9 (inferred)) |  | >45
